Test results published in US20250353841A1 (BIOGEN MA INC., priority 2022, published 2025).

System: mHTT protein
Test: not given
Settings: HD mouse model; cited from earlier work

Q: With `CC1(C)CC(Oc2ccc(-c3ccc(-c4cn[nH]c4)cc3O)nn2)CC(C)(C)N1` [branaplam] as the compound, how does the mHTT protein levels read?
A: The mHTT protein levels was “lowers mHTT protein levels”.

System: mHTT protein
Test: not given
Settings: HD patient cells; cited from earlier work

Q: For `CC1(C)CC(Oc2ccc(-c3ccc(-c4cn[nH]c4)cc3O)nn2)CC(C)(C)N1` [branaplam], which mHTT protein levels is on record?
A: The mHTT protein levels was “lowers mHTT protein levels”.

System: mutant Huntington (HTT) protein
Test: HTT Mutant HTRF iPSC assay (mHTT protein lowering)
Format: cell-based
Settings: human iPSC derived from a HTT patient with a poly-Q49 mutation

Q: With `Cc1cn2nc(-c3cc(F)c4nc(N(C)C5CC(C)(C)NC(C)(C)C5)oc4c3)cc(C)c2n1` [Compound 467, 6-(2,8-dimethylimidazo[1,2-b]pyridazin-6-yl)-4-fluoro-N-methyl-N-(2,2,6,6-tetramethylpiperidin-4-yl)benzo[d]oxazol-2-amine] as the compound, how does the IC50 read?
A: The IC50 was 100 to 1000 nM.

Q: Which IC50 does the source give for `Cc1cn2nc(-c3cc(F)c4nc([C@H]5C[C@@H](CN(C)C)C5)cn4c3)cc(C)c2n1` [Compound 182, 1-((1s,3s)-3-(6-(2,8-dimethylimidazo[1,2-b]pyridazin-6-yl)-8-fluoroimidazo[1,2-a]pyridin-2-yl)cyclobutyl)-N,N-dimethylmethanamine] here?
A: The IC50 was under 100 nM.

Q: With `CCc1nc(C)cn2cc(-c3cc(F)c4nc(C5CCN(C6CC6)CC5)cn4c3)cc12` [Compound 172, 2-(1-cyclopropylpiperidin-4-yl)-6-(1-ethyl-3-methylpyrrolo[1,2-a]pyrazin-7-yl)-8-fluoroimidazo[1,2-a]pyridine] as the compound, how does the IC50 read?
A: Its IC50 is 100 to 1000 nM.

Q: Which IC50 does the source give for `Cc1cn2nc(-c3cc(F)c4nc(NC(=O)C5CN(C6COC6)C5)cn4c3)cc(C)c2n1` [Compound 254, N-(6-(2,8-dimethylimidazo[1,2-b]pyridazin-6-yl)-8-fluoroimidazo[1,2-a]pyridin-2-yl)-1-(oxetan-3-yl)azetidine-3-carboxamide] here?
A: The IC50 was under 100 nM.

Q: With `Cc1cn2cc(-c3cc(F)c4nc(C5CCNCC5)cn4c3)cc(F)c2n1` [Compound 97, 8,8′-difluoro-2-methyl-2′-(piperidin-4-yl)-6,6′-biimidazo[1,2-a]pyridine] as the compound, how does the IC50 read?
A: The IC50 was 100 to 1000 nM.

Q: With `COC1CC1N1CCC(c2cn3cc(-c4cc(C)c5nc(C)cn5n4)cc(F)c3n2)CC1` (stereo not drawn) [Compound 205, 6-(8-fluoro-2-(1-(2-methoxycyclopropyl)piperidin-4-yl)imidazo[1,2-a]pyridin-6-yl)-2,8-dimethylimidazo[1,2-b]pyridazine] as the compound, how does the IC50 read?
A: Its IC50 is 100 to 1000 nM.

Q: For `Cc1cn2nc(-c3cc(F)c4nc([C@H]5[C@@H]6CN(C)C[C@@H]65)cn4c3)cc(C(F)(F)F)c2n1` [Compound 230, 6-(8-fluoro-2-((1R,5S,6r)-3-methyl-3-azabicyclo[3.1.0]hexan-6-yl)imidazo[1,2-a]pyridin-6-yl)-2-methyl-8-(trifluoromethyl)imidazo [1,2-b]pyridazine], which IC50 is on record?
A: Its IC50 is under 100 nM.

Q: For `CCN1CCC(c2nc3cc(-c4cc(C)c5nc(C)cn5n4)cc(F)c3[nH]2)CC1` [Compound 425, 6-(2-(1-ethylpiperidin-4-yl)-7-fluoro-1H-benzo[d]imidazol-5-yl)-2,8-dimethylimidazo[1,2-b]pyridazine], which IC50 is on record?
A: The IC50 was 100 to 1000 nM.

Q: Which IC50 does the source give for `CCN1CC[C@@H](N(C)c2nc3c(F)cc(-c4cc(C)c5nc(C)cn5n4)cc3o2)C[C@H]1C` (stereo in doubt) [Compound 487, rel-6-(2,8-dimethylimidazo[1,2-b]pyridazin-6-yl)-N-((2R,4R)-1-ethyl-2-methylpiperidin-4-yl)-4-fluoro-N-methylbenzo[d]oxazol-2-amine] here?
A: The IC50 was under 100 nM.

Q: With `Cn1cc2cc(-c3cc(F)c4nc(CC5CCCNC5)cn4c3)ccc2n1` (stereo not drawn) [Compound 17, 5-(8-fluoro-2-(piperidin-3-ylmethyl)imidazo[1,2-a]pyridin-6-yl)-2-methyl-2H-indazole] as the compound, how does the IC50 read?
A: Its IC50 is 100 to 1000 nM.

Q: With `Cn1nc2ccc(-c3cc(F)c4[nH]c(C5CCNCC5)nc4c3)cc2n1` [Compound 146, 5-(7-fluoro-2-(piperidin-4-yl)-1H-benzo[d]imidazol-5-yl)-2-methyl-2H-benzo[d][1,2,3]triazole] as the compound, how does the IC50 read?
A: Its IC50 is 1000 to 9000 nM.

Q: Which IC50 does the source give for `Cc1cn2nc(-c3cc(F)c4nc(NC(=O)C5CCNC6(CC6)C5)cn4c3)cc(C)c2n1` (stereo not drawn) [Compound 268, N-(6-(2,8-dimethylimidazo[1,2-b]pyridazin-6-yl)-8-fluoroimidazo[1,2-a]pyridin-2-yl)-4-azaspiro[2.5]octane-7-carboxamide] here?
A: Its IC50 is under 100 nM.

Q: For `Fc1cc(-c2ccc3sncc3c2)cn2cc(C3CCNCC3)nc12` [Compound 98, 5-(8-fluoro-2-(piperidin-4-yl)imidazo[1,2-a]pyridin-6-yl)benzo[d]isothiazole], which IC50 is on record?
A: The IC50 was 1000 to 9000 nM.

Q: With `Cc1cn2nc(-c3cc(F)c4nc(CC5CCN(C)CC5)oc4c3)cc(C)c2n1` [Compound 459, 6-(2,8-dimethylimidazo[1,2-b]pyridazin-6-yl)-4-fluoro-2-((1-methylpiperidin-4-yl)methyl)benzo[d] oxazole] as the compound, how does the IC50 read?
A: Its IC50 is under 100 nM.

Q: With `Cc1cn2cc(-c3cc(F)c4[nH]c(C5CCNCC5)nc4c3)cc(C)c2n1` [Compound 147, 5-(2,8-dimethylimidazo[1,2-a]pyridin-6-yl)-7-fluoro-2-(piperidin-4-yl)-1H-benzo[d]imidazole] as the compound, how does the IC50 read?
A: The IC50 was 1000 to 9000 nM.

Q: Which IC50 does the source give for `Cc1cn2nc(-c3cc(F)c4nc(NC(=O)C5CN(C)C5)cn4c3)cc(C)c2n1` [Compound 257, N-(6-(2,8-dimethylimidazo[1,2-b]pyridazin-6-yl)-8-fluoroimidazo[1,2-a]pyridin-2-yl)-1-methylazetidine-3-carboxamide] here?
A: Its IC50 is under 100 nM.

Q: With `Cc1cn2cc(-c3cc(Cl)c4oc(C5CCNCC5)nc4c3)cc(F)c2n1` [Compound 534, 7-chloro-5-(8-fluoro-2-methylimidazo[1,2-a]pyridin-6-yl)-2-(piperidin-4-yl)benzo[d]oxazole] as the compound, how does the IC50 read?
A: The IC50 was 1000 to 9000 nM.

Q: For `Cc1cn2nc(-c3cc(F)c4nn(C5CCN(C)CC5)nc4c3)cc(C(F)F)c2n1` [Compound 375, 6-[8-(difluoromethyl)-2-methyl-imidazo[1,2-b]pyridazin-6-yl]-4-fluoro-2-(1-methyl-4-piperidyl)benzotriazole], which IC50 is on record?
A: The IC50 was 100 to 1000 nM.

Q: For `Cc1cn2nc(-c3cc(F)c4nc([C@H]5[C@@H]6CNC[C@@H]65)cn4c3)cc(C)c2n1` [Compound 161, 6-[2-[(1S,5R)-3-azabicyclo[3.1.0]hexan-6-yl]-8-fluoro-imidazo[1,2-a]pyridin-6-yl]-2,8-dimethyl-imidazo[1,2-b]pyridazine], which IC50 is on record?
A: The IC50 was under 100 nM.

Q: For `Cc1cn2nc(-c3cc(F)c4nc([C@H]5CCC6(CCNCC6)C5)cn4c3)cc(C)c2n1` (single isomer, unassigned) [Compound 114], which IC50 is on record?
A: The IC50 was under 100 nM.

Q: Which IC50 does the source give for `Cc1nc2c(C)cc(-c3cc(F)c4nc(N5CCC(N(C)C)CC5)oc4c3)nn2n1` [Compound 496, 1-(6-(2,8-dimethyl-[1,2,4]triazolo[1,5-b]pyridazin-6-yl)-4-fluorobenzo[d]oxazol-2-yl)-N,N-dimethylpiperidin-4-amine] here?
A: Its IC50 is 100 to 1000 nM.

System: mHTT protein
Test: not given
Settings: blood samples from SMA Type I patients dosed orally; cited from earlier work

Q: Which mHTT protein levels does the source give for `CC1(C)CC(Oc2ccc(-c3ccc(-c4cn[nH]c4)cc3O)nn2)CC(C)(C)N1` [branaplam] here?
A: Its mHTT protein levels is “lowers mHTT protein levels”.
